This is an account of results in ChEMBL document CHEMBL5465560, “Selectivity Literature for EUbOPEN Chemogenomic Library” (2024).

SMILES strings stand for the structures.

In test [1] the target is Vascular endothelial growth factor receptor 2 (Homo sapiens, UniProt P35968). As to conditions: at 10 µM.
Test [2] in a line: Selectivity interaction (KinomeScan (DiscoverX)) EUB0001079a PKNB. The settings on record: at 1 µM.
The target in test [3] is Tyrosine-protein kinase ABL2 (Homo sapiens, UniProt P42684). Description: Selectivity interaction (KinomeScan (DiscoverX)) EUB0001049a ABL2. The settings on record: at 1 µM.
For test [4], the target named is [Pyruvate dehydrogenase (acetyl-transferring)] kinase isozyme 1, mitochondrial (Homo sapiens, UniProt Q15118). The test can be described thus: Selectivity interaction (Kinase panel (Z-LYTE Assay)) EUB0001632a PDK1. As to conditions: at 10 µM.
The target in test [5] is Serine/threonine-protein kinase PRP4 homolog (Homo sapiens) (UniProt Q13523). The test can be described thus: Selectivity interaction (ActivX KiNativ screen (kinase selectivity in THP-1 cell lysates)) EUB0000639a PRPF4. In kind it is subcellular. As to conditions: lysate, at 0.2 µM.
The target in test [6] is T1, Muscle, skeletal receptor tyrosine-protein kinase (Homo sapiens) (UniProt O15146).
T1 sequence (whole entry): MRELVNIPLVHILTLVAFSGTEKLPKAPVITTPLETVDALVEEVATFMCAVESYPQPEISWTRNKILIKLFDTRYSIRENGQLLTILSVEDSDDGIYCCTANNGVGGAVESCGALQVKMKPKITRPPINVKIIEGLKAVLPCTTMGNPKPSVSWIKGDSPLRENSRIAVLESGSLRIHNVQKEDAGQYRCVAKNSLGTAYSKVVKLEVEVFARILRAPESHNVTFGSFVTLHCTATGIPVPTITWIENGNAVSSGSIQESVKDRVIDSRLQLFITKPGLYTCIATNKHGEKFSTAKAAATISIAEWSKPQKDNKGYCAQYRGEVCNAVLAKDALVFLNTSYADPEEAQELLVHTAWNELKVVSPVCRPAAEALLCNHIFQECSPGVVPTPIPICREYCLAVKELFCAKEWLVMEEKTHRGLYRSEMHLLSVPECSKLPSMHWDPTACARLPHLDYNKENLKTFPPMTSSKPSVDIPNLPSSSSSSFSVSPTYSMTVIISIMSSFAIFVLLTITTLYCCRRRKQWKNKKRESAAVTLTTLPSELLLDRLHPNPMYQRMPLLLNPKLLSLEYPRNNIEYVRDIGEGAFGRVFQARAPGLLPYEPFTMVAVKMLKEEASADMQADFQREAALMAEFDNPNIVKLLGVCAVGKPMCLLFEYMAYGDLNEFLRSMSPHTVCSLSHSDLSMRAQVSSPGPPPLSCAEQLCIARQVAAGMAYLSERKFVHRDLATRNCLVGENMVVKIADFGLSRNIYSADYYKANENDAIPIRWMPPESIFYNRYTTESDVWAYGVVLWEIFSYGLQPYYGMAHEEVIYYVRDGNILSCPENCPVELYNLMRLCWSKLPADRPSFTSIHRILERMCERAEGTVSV
The test can be described thus: Selectivity interaction (KinomeScan (DiscoverX)) EUB0000229b MUSK. The settings on record: at 10 µM.

In test [7] the target is T2, Calcium/calmodulin-dependent protein kinase type IV (Homo sapiens) (UniProt Q16566).
T2 sequence (whole entry): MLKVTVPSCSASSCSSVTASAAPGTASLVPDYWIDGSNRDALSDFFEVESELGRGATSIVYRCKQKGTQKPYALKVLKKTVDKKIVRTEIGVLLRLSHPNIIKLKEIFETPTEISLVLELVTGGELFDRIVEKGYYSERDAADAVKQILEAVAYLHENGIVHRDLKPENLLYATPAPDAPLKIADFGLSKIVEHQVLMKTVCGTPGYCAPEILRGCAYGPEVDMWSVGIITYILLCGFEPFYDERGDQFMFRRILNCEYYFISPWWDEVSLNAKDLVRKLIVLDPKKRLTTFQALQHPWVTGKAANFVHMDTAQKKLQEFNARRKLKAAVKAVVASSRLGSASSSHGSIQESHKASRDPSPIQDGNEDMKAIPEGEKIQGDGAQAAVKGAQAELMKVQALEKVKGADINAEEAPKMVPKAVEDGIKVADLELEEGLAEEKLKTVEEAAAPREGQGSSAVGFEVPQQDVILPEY
Description: Selectivity interaction (Kinase panel (KiNativ target engagement assay in Jurkat cells)) EUB0001635a CAMK4. In kind it is cell-based. As to conditions: Selectivity number of off-targets 0.0, Selectivity number of targets 233.0, Source Knowledge https://www.sciencedirect.com/science/article/pii/S2451945619300674?via%3Dihub, at 1 µM.

In test [8] the target is T3, Serine/threonine-protein kinase LATS1 (Homo sapiens) (UniProt O95835).
T3 sequence (whole entry): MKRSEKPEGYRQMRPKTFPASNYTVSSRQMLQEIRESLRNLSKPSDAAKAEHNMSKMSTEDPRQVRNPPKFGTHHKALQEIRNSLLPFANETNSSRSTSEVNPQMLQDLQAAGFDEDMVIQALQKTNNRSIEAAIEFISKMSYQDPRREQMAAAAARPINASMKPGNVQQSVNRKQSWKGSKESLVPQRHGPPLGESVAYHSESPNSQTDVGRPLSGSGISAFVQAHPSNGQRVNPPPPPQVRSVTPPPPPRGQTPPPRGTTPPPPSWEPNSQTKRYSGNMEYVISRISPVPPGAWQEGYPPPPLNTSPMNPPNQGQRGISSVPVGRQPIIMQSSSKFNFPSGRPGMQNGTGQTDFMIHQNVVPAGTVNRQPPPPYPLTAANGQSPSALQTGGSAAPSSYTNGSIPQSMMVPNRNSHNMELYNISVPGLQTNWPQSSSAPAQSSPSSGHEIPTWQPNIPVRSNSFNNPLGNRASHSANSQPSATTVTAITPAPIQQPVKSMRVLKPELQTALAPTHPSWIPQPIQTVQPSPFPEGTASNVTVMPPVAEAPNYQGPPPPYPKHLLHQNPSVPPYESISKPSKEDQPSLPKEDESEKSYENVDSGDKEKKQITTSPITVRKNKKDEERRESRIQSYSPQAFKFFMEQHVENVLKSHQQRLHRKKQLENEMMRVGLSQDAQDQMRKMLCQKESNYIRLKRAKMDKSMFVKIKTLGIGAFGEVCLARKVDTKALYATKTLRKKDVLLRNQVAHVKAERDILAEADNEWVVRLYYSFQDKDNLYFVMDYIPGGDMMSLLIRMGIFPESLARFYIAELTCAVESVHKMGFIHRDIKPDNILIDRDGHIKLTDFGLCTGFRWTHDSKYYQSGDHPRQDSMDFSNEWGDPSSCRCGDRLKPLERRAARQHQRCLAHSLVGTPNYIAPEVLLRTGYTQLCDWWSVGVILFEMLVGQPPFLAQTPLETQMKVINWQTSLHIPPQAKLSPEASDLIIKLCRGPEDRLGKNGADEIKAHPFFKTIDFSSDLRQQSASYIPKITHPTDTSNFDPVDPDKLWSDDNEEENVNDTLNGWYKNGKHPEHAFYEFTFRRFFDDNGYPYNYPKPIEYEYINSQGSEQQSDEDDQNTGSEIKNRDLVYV
Description: Selectivity interaction (Kinase panel (KiNativ target engagement assay in Jurkat cells)) EUB0001635a LATS1. It is filed as cell-based. As to conditions: at 1 µM.

Chain of Vascular endothelial growth factor receptor 2 (P35968 whole entry): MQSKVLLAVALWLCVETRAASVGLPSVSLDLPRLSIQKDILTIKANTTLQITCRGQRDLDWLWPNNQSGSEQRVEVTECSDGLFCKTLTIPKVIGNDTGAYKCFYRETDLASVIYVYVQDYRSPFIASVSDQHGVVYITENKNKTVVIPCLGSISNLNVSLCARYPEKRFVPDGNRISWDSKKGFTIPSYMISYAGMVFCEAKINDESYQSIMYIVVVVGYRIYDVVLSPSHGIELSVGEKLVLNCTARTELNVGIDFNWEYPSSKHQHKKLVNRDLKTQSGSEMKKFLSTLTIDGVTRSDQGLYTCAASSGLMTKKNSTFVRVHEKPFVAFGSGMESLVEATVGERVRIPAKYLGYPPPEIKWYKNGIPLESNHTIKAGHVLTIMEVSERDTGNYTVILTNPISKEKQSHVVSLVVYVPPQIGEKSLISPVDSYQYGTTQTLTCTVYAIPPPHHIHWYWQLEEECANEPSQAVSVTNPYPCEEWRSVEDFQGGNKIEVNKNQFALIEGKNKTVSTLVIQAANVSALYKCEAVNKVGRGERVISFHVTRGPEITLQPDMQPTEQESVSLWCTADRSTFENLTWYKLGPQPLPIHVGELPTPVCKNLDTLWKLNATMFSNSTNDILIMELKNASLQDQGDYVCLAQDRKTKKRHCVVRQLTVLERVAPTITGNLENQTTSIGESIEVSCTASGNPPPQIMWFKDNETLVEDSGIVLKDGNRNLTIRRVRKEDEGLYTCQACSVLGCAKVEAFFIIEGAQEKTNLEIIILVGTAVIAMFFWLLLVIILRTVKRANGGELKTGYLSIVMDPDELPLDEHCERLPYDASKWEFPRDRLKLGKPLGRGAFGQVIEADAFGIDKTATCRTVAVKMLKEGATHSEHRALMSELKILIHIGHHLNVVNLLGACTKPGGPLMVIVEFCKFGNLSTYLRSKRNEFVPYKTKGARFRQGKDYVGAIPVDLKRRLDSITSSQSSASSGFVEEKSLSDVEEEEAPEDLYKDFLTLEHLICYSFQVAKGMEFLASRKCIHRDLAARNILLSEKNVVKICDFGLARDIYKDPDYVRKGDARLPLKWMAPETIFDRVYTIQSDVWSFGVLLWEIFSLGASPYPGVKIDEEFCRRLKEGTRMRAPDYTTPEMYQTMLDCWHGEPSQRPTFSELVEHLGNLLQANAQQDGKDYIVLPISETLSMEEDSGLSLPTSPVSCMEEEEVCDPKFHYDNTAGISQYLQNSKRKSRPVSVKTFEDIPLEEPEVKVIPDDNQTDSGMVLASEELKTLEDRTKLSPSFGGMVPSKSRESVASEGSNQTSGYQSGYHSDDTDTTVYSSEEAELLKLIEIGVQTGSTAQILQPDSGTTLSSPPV
Chain of Tyrosine-protein kinase ABL2 (P42684 whole entry): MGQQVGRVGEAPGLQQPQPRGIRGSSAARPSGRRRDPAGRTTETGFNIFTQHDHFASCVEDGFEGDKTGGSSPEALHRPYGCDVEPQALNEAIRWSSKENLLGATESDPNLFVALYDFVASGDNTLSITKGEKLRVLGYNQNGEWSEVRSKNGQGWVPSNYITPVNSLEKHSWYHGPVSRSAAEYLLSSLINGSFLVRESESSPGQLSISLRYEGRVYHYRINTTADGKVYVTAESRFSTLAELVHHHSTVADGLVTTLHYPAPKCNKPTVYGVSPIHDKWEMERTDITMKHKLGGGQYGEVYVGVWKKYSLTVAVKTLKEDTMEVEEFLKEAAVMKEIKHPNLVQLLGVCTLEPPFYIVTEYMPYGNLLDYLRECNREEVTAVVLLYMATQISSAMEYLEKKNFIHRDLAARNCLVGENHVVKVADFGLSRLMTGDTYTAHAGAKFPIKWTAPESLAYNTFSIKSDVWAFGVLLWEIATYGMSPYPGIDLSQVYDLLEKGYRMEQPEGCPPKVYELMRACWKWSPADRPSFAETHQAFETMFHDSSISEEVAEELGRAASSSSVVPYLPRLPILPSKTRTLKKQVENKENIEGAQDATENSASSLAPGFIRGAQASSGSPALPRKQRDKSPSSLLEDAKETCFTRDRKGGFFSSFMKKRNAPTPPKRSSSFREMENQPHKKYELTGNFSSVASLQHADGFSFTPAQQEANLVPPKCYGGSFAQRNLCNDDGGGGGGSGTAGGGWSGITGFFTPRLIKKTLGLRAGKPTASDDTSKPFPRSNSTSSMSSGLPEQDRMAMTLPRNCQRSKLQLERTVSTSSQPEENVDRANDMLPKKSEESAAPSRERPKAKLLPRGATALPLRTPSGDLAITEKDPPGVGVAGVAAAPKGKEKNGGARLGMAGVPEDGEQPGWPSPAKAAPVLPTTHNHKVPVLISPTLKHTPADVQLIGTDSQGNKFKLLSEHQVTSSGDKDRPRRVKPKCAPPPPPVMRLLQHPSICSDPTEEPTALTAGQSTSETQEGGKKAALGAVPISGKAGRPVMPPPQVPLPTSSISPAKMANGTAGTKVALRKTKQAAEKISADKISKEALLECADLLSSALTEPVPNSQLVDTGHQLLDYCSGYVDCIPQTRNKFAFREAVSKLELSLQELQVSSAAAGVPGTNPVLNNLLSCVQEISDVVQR
Chain of Serine/threonine-protein kinase PRP4 homolog (Homo sapiens) (Q13523 whole entry): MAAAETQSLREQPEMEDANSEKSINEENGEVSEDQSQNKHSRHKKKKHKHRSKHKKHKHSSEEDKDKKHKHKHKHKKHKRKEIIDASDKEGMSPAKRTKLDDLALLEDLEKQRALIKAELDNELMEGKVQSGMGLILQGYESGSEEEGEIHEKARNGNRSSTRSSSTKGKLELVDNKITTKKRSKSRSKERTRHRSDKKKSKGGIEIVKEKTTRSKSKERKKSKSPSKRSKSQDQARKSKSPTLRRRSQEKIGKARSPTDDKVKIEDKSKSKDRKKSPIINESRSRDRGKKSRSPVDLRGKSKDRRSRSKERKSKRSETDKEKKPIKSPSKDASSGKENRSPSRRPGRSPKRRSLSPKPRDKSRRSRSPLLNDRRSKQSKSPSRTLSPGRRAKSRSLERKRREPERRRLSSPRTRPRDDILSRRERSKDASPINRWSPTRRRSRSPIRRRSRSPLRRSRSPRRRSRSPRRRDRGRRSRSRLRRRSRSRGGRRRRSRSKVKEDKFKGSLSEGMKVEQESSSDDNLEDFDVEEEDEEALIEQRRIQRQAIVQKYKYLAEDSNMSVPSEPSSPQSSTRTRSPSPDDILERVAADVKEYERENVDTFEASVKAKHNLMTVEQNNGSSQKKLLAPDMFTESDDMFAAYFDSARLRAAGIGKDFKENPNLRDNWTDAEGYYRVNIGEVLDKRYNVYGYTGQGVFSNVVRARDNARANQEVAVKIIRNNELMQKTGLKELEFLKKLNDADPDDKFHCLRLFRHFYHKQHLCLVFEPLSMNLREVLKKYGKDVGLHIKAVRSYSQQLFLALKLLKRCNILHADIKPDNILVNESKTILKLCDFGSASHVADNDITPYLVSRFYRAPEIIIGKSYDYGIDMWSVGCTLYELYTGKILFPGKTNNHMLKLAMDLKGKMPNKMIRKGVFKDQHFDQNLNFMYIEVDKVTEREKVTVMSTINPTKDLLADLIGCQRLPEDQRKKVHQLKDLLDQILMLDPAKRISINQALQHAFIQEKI

Turning to `Cc1cc([C@@H](C)Nc2ccccc2C(=O)O)c2nc(N3CCOCC3)cc(=O)n2c1` [AZD-6482], the % of control in test [1] worked out at 100%.

For `Nc1cnc(N2CCc3cc(S(=O)(=O)Nc4c(F)cc(Cl)cc4F)cc(N4CCCC4=O)c32)nc1` [TP-020n], in test [2], the % of control was 96%.

In test [3], `COc1cc(Nc2nc(C)cc(-c3cnn4nc(OC)ccc34)n2)cc(C(F)(F)F)c1` registered a % of control of 76%.

`Cn1cc(-n2cnc3c(NCc4nc5cc(Cl)c(Cl)cc5[nH]4)nc(N4CCOCC4)nc32)cn1` had a % of control in test [4] of 9.23%.

Take `CC[C@@H]1[C@H](F)C(=O)N[C@@H]1COc1nccc2cc(C(N)=O)c(OC)cc12` [ZIMLOVISERTIB]: the % of inhibition in test [5] was determined as 28.3%.

For the compound `COc1cc(N(C)c2ccnc3ccc(C(F)(F)F)cc23)cc(OC)c1OC`, the % binding in test [6] is 81%.

In the case of `C=CC(=O)Nc1ccc(C(=O)Nc2[nH]nc3c2CN(C(=O)N[C@H](CN(C)C)c2ccccc2)C3(C)C)cc1`, the % of engagement in test [7] is -8.6%; in test [8], 3.9%.
